How the values were obtained:
Assay type in all cases: cell-based
FGFR2 V564F = molecular target: T1, FGFR2 V564F (Homo sapiens, UniProt P21802, V564F); test: Cell proliferation assay for Tel-FGFR2 V564F in BaF3; conditions: BaF3 cells expressing FGFR2 V564F fusion, 48 hrs, CellTiter Glo
T1 construct: P41212 (Transcription factor ETV6)
Procedure: (§1) By transfection, cell strains of the intracellular kinase domain fusion protein of TEL-FGFR2 WT or the intracellular domain fusion proteins containing FGFR2 V564, V564F, V564L, N549K and K659M mutations were stably expressed in Baf cells. On day 1, the cell suspension was plated into a 96-well plate containing growth medium (DMEM containing 1% Glutamax, 10% FBS and 1% Pen/Strep) at 2000-4000 cells/90 μL/per well, and then the mixture was incubated overnight at 37° C. and 5% CO2. On day 2, 10 μL of growth medium containing a 10-fold stock solution of test compound was added to the cell culture (9 dose points, 3× serial dilution, starting from 1 μM, finally 0.3% DMSO). After incubation at 37° C. and 5% CO2 for 48 hrs, 50 μL of CellTiter Glo (CTG) reagent was added to the cell-containing 96-well plate on day 3, and the plate was then incubated at room temperature for 10 min. Then relative light units (RLUs) were measured on a microplate reader with a luminescence detection module. RLU values were normalized to % survival, and concentration-response curves were plotted using Prism to calculate IC50 (nM).

FGFR3 V555M = molecular target: T2, FGFR3 V555M (Homo sapiens, UniProt P22607, V555M); test: Cell proliferation assay for FGFR3 V555M in BaF3; conditions: BaF3 cells expressing FGFR3 V555M fusion, 48 hrs, CellTiter Glo
T2 construct: P41212 (Transcription factor ETV6)
T2 sequence (P22607 472-761 V555M limits assumed): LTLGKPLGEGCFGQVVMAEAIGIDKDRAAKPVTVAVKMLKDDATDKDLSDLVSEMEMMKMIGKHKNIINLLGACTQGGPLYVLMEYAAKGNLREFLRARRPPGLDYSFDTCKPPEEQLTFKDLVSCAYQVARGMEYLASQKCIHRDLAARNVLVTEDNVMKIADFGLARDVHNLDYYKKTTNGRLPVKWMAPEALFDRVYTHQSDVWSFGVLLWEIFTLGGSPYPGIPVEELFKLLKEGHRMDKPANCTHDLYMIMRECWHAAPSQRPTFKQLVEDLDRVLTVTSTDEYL
Procedure: For the compounds of the Examples of the present invention, cell strains of TEL-FGFR3 WT intracellular kinase domain fusion protein or intracellular domain fusion protein containing FGFR3 V555M or FGFR3 N540K mutation were stably expressed in Baf cells by transfection and were used to determine the cell proliferation effect of BaF3-Tel-FGFR3 WT. FGFR3 V555M or FGFR3 N540K. The specific test process was as follows: • 1) The cell suspension was plated into a 96-well plate containing growth medium (DMEM containing 1% Glutamax, 10% FBS and 1% Pen/Strep) at 2000-4000 cells/90 μL/per well, and then the mixture was incubated overnight at 37° C. and 5% CO2. • 2) 10 μL of growth medium containing a 10-fold stock solution of test compound was added to the cell culture (9 dose points, 3× serial dilution, starting from 1 μM, finally 0.3% DMSO). • 3) The mixture was incubated at 37° C. and 5% CO2 for 48 hrs. • 4) 50 μL of CellTiter Glo (CTG) reagent was added to the cell-containing 96-well plate, and the plate was then incubated at room temperature for 10 min. • 5) Relative light units (RLUs) were measured on a microplate reader with a luminescence detection module. RLU values were normalized to % survival, and concentration-response curves were plotted using Prism to calculate IC50 (nM).

FGFR2 V564L = molecular target: T3, FGFR2 V564L (Homo sapiens, UniProt P21802, V564L); test: Cell proliferation assay for Tel-FGFR2 V564L in BaF3; conditions: BaF3 cells expressing FGFR2 V564L fusion, 48 hrs, CellTiter Glo
T3 construct: P41212 (Transcription factor ETV6)
T3 sequence (P21802 481-770 V564L limits assumed): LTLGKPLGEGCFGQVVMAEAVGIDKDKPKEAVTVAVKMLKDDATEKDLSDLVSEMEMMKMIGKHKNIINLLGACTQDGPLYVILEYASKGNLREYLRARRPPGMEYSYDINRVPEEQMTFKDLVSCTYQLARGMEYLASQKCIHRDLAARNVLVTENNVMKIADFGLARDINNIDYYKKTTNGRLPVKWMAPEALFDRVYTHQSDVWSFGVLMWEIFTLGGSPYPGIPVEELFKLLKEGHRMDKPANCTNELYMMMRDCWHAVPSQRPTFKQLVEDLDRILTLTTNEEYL
Procedure: as §1

FGFR2 N549K = molecular target: T4, FGFR2 N549K (Homo sapiens, UniProt P21802, N549K); test: Cell proliferation assay for Tel-FGFR2 N549K in BaF3; conditions: BaF3 cells expressing FGFR2 N549K fusion, 48 hrs, CellTiter Glo
T4 construct: P41212 (Transcription factor ETV6)
T4 sequence (P21802 481-770 N549K limits assumed): as the sequence (P21802 481-770 V564L limits assumed) above, with N69K, L84V counted along it
Procedure: as §1

FGFR2 K659M = molecular target: T5, FGFR2 K659M (Homo sapiens, UniProt P21802, K659M); test: Cell proliferation assay for Tel-FGFR2 K659M in BaF3; conditions: BaF3 cells expressing FGFR2 K659M fusion, 48 hrs, CellTiter Glo
T5 construct: P41212 (Transcription factor ETV6)
T5 sequence (P21802 481-770 K659M limits assumed): as the sequence (P21802 481-770 V564L limits assumed) above, with L84V, K179M counted along it
Procedure: as §1

FGFR2 V564I = molecular target: T6, FGFR2 V564I (Homo sapiens, UniProt P21802, V564I); test: Cell proliferation assay for Tel-FGFR2 V564I in BaF3; conditions: BaF3 cells expressing FGFR2 V564I fusion, 48 hrs, CellTiter Glo
T6 construct: P41212 (Transcription factor ETV6)
T6 sequence (P21802 481-770 V564I limits assumed): as the sequence (P21802 481-770 V564L limits assumed) above, with L84I counted along it
Procedure: as §1

T1 sequence (P21802 481-770 V564F limits assumed): as the sequence (P21802 481-770 V564L limits assumed) above, with L84F counted along it

| SMILES | IC50 (FGFR2 V564F) [nM] | IC50 (FGFR3 V555M) [nM] | IC50 (FGFR2 V564L) [nM] | IC50 (FGFR2 N549K) [nM] | IC50 (FGFR2 K659M) [nM] | IC50 (FGFR2 V564I) [nM] |
| --- | --- | --- | --- | --- | --- | --- |
| C=CC(=O)N1CC[C@H](n2cc(C#Cc3ccc4oc(NC)nc4c3)c3c(N)ncnc32)C1 [Example 7, (S)-1-(3-(4-amino-5-((2-(methylamino)benzo[d]oxazol-5-yl)ethynyl)-7H-pyrrolo[2,3-d]pyrimidin-7-yl)pyrrolidin-1-yl)prop-2-en-1-one] | 0.5 to 5 | 5 to 50 | 5 to 50 | 5 to 50 | – | – |
| C=CC(=O)N1CC[C@H](n2nc(C#Cc3cc4nc(C5(F)CC5)oc4cc3F)c3c(N)ncnc32)C1 [Example 36] | ≤ 0.5 | 0.5 to 5 | – | – | 0.5 to 5 | ≤ 0.5 |
| C=CC(=O)N1CC[C@H](n2nc(C#Cc3cnc4sc(C)nc4c3)c3c(N)ncnc32)C1 [Example 41, (S)-1-(3-(4-amino-3-((2-methylthiazolo[5,4-6]pyridin-6-yl)ethynyl)-1H-pyrazolo [3,4-d]pyrimidin-1-yl)pyrrolidin-1-yl)prop-2-en-1-one] | 5 to 50 | 50 to 500 | 0.5 to 5 | 5 to 50 | – | – |
| C=CC(=O)N1CC[C@H](n2cc(C#Cc3ccc4sc(C)nc4c3)c3c(N)ncnc32)C1 [Example 42, (S)-1-(3-(4-amino-5-((2-methylbenzo[d]thiazol-5-yl)ethynyl)-7H-pyrrolo[2,3-d]pyrimidin-7-yl)pyrrolidin-1-yl)prop-2-en-1-one] | ≤ 0.5 | 5 to 50 | 0.5 to 5 | 0.5 to 5 | 5 to 50 | – |
| C=CC(=O)N1CC[C@H](n2cc(C#Cc3ccc4sc(CC)nc4c3)c3c(N)ncnc32)C1 [Example 44, (S)-1-(3-(4-amino-5-((2-ethylbenzo[d]thiazol-5-yl)ethynyl)-7H-pyrrolo[2,3-d]pyrimidin-7-yl)pyrrolidin-1-yl)prop-2-en-1-one] | 0.5 to 5 | 5 to 50 | 0.5 to 5 | 0.5 to 5 | – | ≤ 0.5 |
| C=CC(=O)N1CC[C@H](n2cc(C#Cc3ccc4sc(C(F)F)nc4c3)c3c(N)ncnc32)C1 [Example 45, (S)-1-(3-(4-amino-5-((2-(difluoromethyl)benzo[d]thiazol-5-yl)ethynyl)-7H-pyrrolo[2,3-d]pyrimidin-7-yl)pyrrolidin-1-yl)prop-2-en-1-one] | 0.5 to 5 | 5 to 50 | 0.5 to 5 | 0.5 to 5 | – | – |
| C=CC(=O)N1CC[C@H](n2cc(C#Cc3cc4nc(C5CC5)sc4cc3F)c3c(N)ncnc32)C1 [Example 48, (S)-1-(3-(4-amino-5-((2-cyclopropyl-6-fluorobenzo [d]thiazol-5-yl)ethynyl)-7H-pyrrolo[2,3-d]pyrimidin-7-yl)pyrrolidin-1-yl)prop-2-en-1-one] | 0.5 to 5 | 0.5 to 5 | 0.5 to 5 | 0.5 to 5 | – | ≤ 0.5 |
| C=CC(=O)N1CC[C@H](n2cc(C#Cc3c(F)cc4sc(C5CC5)nc4c3F)c3c(N)ncnc32)C1 [Example 51, (S)-1-(3-(4-amino-5-((2-cyclopropyl-4,6-difluoro-benzo[d]thiazol-5-yl)ethynyl)-7H-pyrrolo[2,3-d]pyrimidin-7-yl)pyrrolidin-1-yl) prop-2-en-1-one] | ≤ 0.5 | 0.5 to 5 | 0.5 to 5 | 0.5 to 5 | – | ≤ 0.5 |
| C=CC(=O)N1CC[C@H](n2nc(C#Cc3ccc4sc(C)nc4c3)c3c(N)ncnc32)C1 [Example 52, (S)-1-(3-(4-amino-3-((2-methylbenzo[d]thiazol-5-yl)ethynyl)-1H-pyrazolo [3,4-d]pyrimidin-1-yl)pyrrolidin-1-yl)prop-2-en-1-one] | 0.5 to 5 | 5 to 50 | 5 to 50 | 5 to 50 | – | – |
| C=CC(=O)N1CC[C@H](n2nc(C#Cc3ccc4sc(CC)nc4c3)c3c(N)ncnc32)C1 [Example 53, (S)-1-(3-(4-amino-3-((2-ethylbenzo[d]thiazol-5-yl)ethynyl)-1H-pyrazolo[3,4-d]pyrimidin-1-yl)pyrrolidin-1-yl)prop-2-en-1-one] | 0.5 to 5 | 5 to 50 | 0.5 to 5 | 0.5 to 5 | – | ≤ 0.5 |
| C=CC(=O)N1CC[C@H](n2nc(C#Cc3ccc4sc(C5CC5)nc4c3)c3c(N)ncnc32)C1 [Example 54, (S)-1-(3-(4-amino-3-((2-cyclopropylbenzo[d]thiazol-5-yl)ethynyl)-1H-pyrazolo [3,4-d]pyrimidin-1-yl)pyrrolidin-1-yl)prop-2-en-1-one] | 0.5 to 5 | 5 to 50 | 0.5 to 5 | 0.5 to 5 | – | – |
| C=CC(=O)N1CC[C@H](n2nc(C#Cc3ccc4sc(C(F)F)nc4c3)c3c(N)ncnc32)C1 [Example 55, (S)-1-(3-(4-amino-3-((2-(difluoromethyl)benzo[d]thiazol-5-yl)ethynyl)-1H-pyrazolo[3,4-d]pyrimidin-1-yl)pyrrolidin-1-yl)prop-2-en-1-one] | 5 to 50 | 5 to 50 | 5 to 50 | 0.5 to 5 | – | – |
| C=CC(=O)N1CC[C@H](n2nc(C#Cc3cc4nc(C)sc4cc3F)c3c(N)ncnc32)C1 [Example 57, (S)-1-(3-(4-amino-3-((6-fluoro-2-methylbenzo[d]thiazol-5-yl)ethynyl)-1H-pyrazolo[3,4-d]pyrimidin-1-yl)pyrrolidin-1-yl)prop-2-en-1-one] | ≤ 0.5 | 5 to 50 | 0.5 to 5 | 0.5 to 5 | – | ≤ 0.5 |
| C=CC(=O)N1CC[C@H](n2nc(C#Cc3cc4nc(C5CC5)sc4cc3F)c3c(N)ncnc32)C1 [Example 59, (S)-1-(3-(4-amino-3-((2-cyclopropyl-6-fluorobenzo [d]thiazol-5-yl)ethynyl)-1H-pyrazolo[3,4-d]pyrimidin-1-yl)pyrrolidin-1-yl) prop-2-en-1-one] | 0.5 to 5 | 0.5 to 5 | 0.5 to 5 | 0.5 to 5 | – | ≤ 0.5 |
| C=CC(=O)N1C[C@@H](n2nc(C#Cc3c(F)cc4sc(N5CCC5)nc4c3F)c3c(N)ncnc32)C[C@@H]1COC [Example 69, 1-((2R,4S)-4-(4-amino-3-((2-(azetidin-1-yl)-4,6-difluorobenzo[d]thiazol-5-yl)ethynyl)-1H-pyrazolo[3,4-d]pyrimidin-1-yl)-2-(methoxy-methyl)pyrrolidin-1-yl)prop-2-en-1-one] | ≤ 0.5 | ≤ 0.5 | 0.5 to 5 | 0.5 to 5 | 5 to 50 | – |
| C=CC(=O)N1CC[C@H](n2cc(C#Cc3ccc4oc(C(F)F)nc4c3)c3c(N)ncnc32)C1 [Example 71, (S)-1-(3-(4-amino-5-((2-(difluoromethyl)benzo[d]oxazol-5-yl)ethynyl)-7H-pyrrolo[2,3-d]pyrimidin-7-yl)pyrrolidin-1-yl)prop-2-en-1-one] | 0.5 to 5 | 5 to 50 | 5 to 50 | 0.5 to 5 | – | – |
| C=CC(=O)N1CC[C@H](n2cc(C#Cc3c(F)cc4sc(C)nc4c3F)c3c(N)ncnc32)C1 [Example 75, (S)-1-(3-(4-amino-5-((4,6-difluoro-2-methylbenzo[d]thiazol-5-yl)ethynyl)-7H-pyrrolo[2,3-d]pyrimidin-7-yl)pyrrolidin-1-yl)prop-2-en-1-one] | 0.5 to 5 | 0.5 to 5 | – | – | 0.5 to 5 | ≤ 0.5 |

From patent US20230303575A1, “FGFR AND MUTATION INHIBITOR THEREOF, PREPARATION METHOD THEREFOR AND USE THEREOF” (Abbisko Therapeutics Co., Ltd., priority 2020, published 2023)
